Broadly, the AUC is the area under the concentration-time curve, a measure of exposure. Broadly, the half-life is the time in which the quantity being followed falls by half. What is called MRT is a mean duration of stay, worked out from the concentration-time curve. One may read the IC50 as the concentration that gives 50% inhibition.

From patent publication US10633375B2, “Oxopicolinamide derivative, preparation method therefor and pharmaceutical use thereof” (Jiangsu Hengrui Medicine Co., Ltd., priority 2016, dated 2020) come the findings set out here.

Bounds are passed on as bounds.

The test system of one data set is human blood. The data set can be described thus: In vitro anticoagulant effect on human blood (APTT, CT2). Particulars: for CT2, concentration doubling APTT: concentration corresponding to 2 times the APTT of the blank control, human plasma. On the procedure: Test Example 2: Determination of In Vitro Anticoagulant Effect of the Compounds of the Present Invention on Human Blood
1. Experimental Materials
Plasma: Human blood was collected in blood collection tubes containing no anticoagulant, and then 3.8% sodium citrate (volume ratio 1:9) was added. The tubes were centrifuged at 2500 rpm for 10 minutes at room temperature, and then the plasma was collected and stored at −80° C.;
Reagents: APTT reagent (Activated partial thromboplastin time assay kit, SIEMENS, Art. No. B4218-1), calcium chloride solution;
Instrument: Coagulation instrument (SYSMEX, CA-500).
The divided plasma was melted at room temperature and mixed well. 10000 μM the test compound dissolved in 100% DMSO was diluted to 3000, 300, 200, 150, 75, 30, 10, 3, 0.3 μM with 100% DMSO, and the blank was 100% DMSO. The reagent, plasma, and compound were placed in corresponding positions in the coagulation instrument, and APTT detection of the compound was carried out.
Curve fitting was carried out by graphpad and CT2 was calculated, i.e., the concentration of the compound corresponding to 2 times the APTT of the blank control.

Data set [1] in a line: Pharmacokinetics assay in rats after intragastrical administration. The note with it: both sexes, Sprague-Dawley, rat, plasma, po, SD rats, intragastric, 2 mg/kg; for Vd/F: read-out: Apparent Distribution Volume Vz/F; for AUC: read-out: Area Under Curve AUC; for CL/F: read-out: Clearance CLz/F; for half-life: read-out: Half-Life T½ (converted); for MRT: read-out: Mean Residence Time MRT; for Cmax: read-out: Plasma Concentration Cmax. The class given is in vivo, Sprague-Dawley (SD) rats. An excerpt:
Test Example 3. Pharmacokinetics Assay of the Compounds of the Present Invention
Rats were used as test animals. […] The pharmacokinetic behavior of the compounds of the present invention was studied and evaluated in rats.
56 healthy adult Sprague-Dawley (SD) rats, half male and half female, were purchased from SINO-BRITSH SIPPR/BK LAB. ANIMAL LTD., CO, with License No.: SCXK (Shanghai) 2008-0016.
2.3 Preparation of the Test Compounds
A certain amount of the test compound was weighed, and added with 5% by volume of DMSO, 5% by volume of Tween 80 and 90% normal saline to prepare a 0.2 mg/mL colorless, clear and transparent solution.
After an overnight fast, SD rats were intragastrically administered at a dose of 2.0 mg/kg and an administration volume of 10.0 mL/kg.
Blood (0.2 mL) was taken from the orbital sinus before administration and at 0.5, 1.0, 2.0, 4.0, 6.0, 8.0, 11.0 and 24.0 hours after administration. The samples were stored in heparin anticoagulation tubes, and centrifuged for 10 minutes at 3500 rpm at 4° C. to separate the blood plasma. The plasma samples were stored at −20° C. The rats were fed 2 hours after administration.
The content of the test compound in the plasma of rats after intragastric administration of different concentrations of the drug was determined: 25 μL of rat plasma at each time after administration was taken and added with 30 μL (100 ng/mL) of the internal standard solution of camptothecin and 200 μL of acetonitrile, shaken vertically for 5 minutes, and centrifuged for 10 minutes (4000 rpm). 3.0 μL of the supernatant was taken from the plasma samples for LC/MS/MS analysis.
4. Results of Pharmacokinetic Parameters
Pharmacokinetic parameters of the compounds of the present invention in rats are shown below.

Data set [2] has as its target Coagulation Factor XIa protease (Homo sapiens (Human), UniProt P03951). The data set can be described thus: Inhibition of Factor XIa detected by absorption photometry. The class given is biochemical. Particulars: absorbance at 405 nm, 10 minutes at 37° C. In outline:
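Compounds were serially diluted in 100% DMSO (200-0.002 μM dilution series) before addition to the wells. FXIa enzyme solution at 2.5 μg/ml and substrate solution at 2 mM were then added, both stock concentrations. After 10 min at 37° C., absorbance was read at 405 nm.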

Coagulation Factor XIa protease, sequence (P03951 388-625): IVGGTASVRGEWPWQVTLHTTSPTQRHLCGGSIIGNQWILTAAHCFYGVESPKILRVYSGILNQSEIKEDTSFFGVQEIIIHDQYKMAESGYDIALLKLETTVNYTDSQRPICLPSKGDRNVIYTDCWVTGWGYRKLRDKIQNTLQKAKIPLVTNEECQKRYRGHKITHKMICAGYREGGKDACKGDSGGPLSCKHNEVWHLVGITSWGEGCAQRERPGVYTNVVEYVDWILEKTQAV
Coagulation Factor XIa protease, sequence (P03951 19-387 partner): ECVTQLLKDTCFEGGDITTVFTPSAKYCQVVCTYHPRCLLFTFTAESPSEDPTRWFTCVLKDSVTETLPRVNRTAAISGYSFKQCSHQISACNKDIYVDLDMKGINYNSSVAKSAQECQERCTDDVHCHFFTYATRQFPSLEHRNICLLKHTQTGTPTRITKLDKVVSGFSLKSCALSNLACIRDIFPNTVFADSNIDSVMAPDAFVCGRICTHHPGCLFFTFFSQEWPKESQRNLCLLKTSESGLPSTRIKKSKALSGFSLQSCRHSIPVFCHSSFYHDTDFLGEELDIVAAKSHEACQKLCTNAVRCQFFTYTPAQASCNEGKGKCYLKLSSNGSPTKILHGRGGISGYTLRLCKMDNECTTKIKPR

`COc1cn([C@@H](CCOC(C)(C)C)C(=O)Nc2ccc(C(=O)O)cc2)c(=O)cc1-c1cc(Cl)ccc1C(C)=O` [Example 111, (S)-4-(2-(4-(2-acetyl-5-chlorophenyl)-5-methoxy-2-oxopyridin-1(2H)-yl)-4-(tert-butoxy)butanamido)benzoic acid]: in the data set on human blood (Table 2), the “CT2, concentration doubling APTT” value was determined as 3.2 µM. Moreover, in data set [1], the Vd/F was 36.7 ± 13.7 L/kg, the AUC came to 378 ± 98 ng·h/mL, the CL/F was determined as 94.1 ± 30.8 mL/min/kg and the half-life is 296 ± 140 min. Besides, in data set [1], the MRT is 4.41 ± 1.99 h and the Cmax is 252 ± 56 ng/mL. This compound also showed an IC50 in data set [2] of 18 nM.
In the case of `CCC(=O)c1ccc(Cl)cc1-c1cc(=O)n([C@@H](CCOC(C)(C)C)C(=O)Nc2ccc3nccnc3c2)cc1OC` [Example 114, (S)-4-(tert-butoxy)-2-(4-(5-chloro-2-propionylphenyl)-5-methoxy-2-oxopyridin-1(2H)-yl)-N-(quinoxalin-6-yl)butanamide], the “CT2, concentration doubling APTT” value in the data set with human blood (Table 2) turned out to be 3.6 µM. In addition, the “CT2, concentration doubling APTT” value with human blood (Table 3 comparison) stood at 2.9 µM. In addition, the “CT2 value ratio, Example 114 versus comparative Example 2” value in the data set on human blood (human blood, from Table 3) is given as 4.5 times. Also, in data set [1], the Vd/F was determined as 24 ± 11.1 L/kg, the AUC worked out at 168 ± 102 ng·h/mL, the CL/F was found to be 278 ± 182 mL/min/kg and the half-life is 66.6 ± 15 min. Moreover, in data set [1], the MRT came to 1.67 ± 0.23 h and the Cmax is 91.2 ± 51.3 ng/mL. This compound returned an IC50 in data set [2] of 27 nM.
Turning to `COc1cn([C@H](CC2CCC2)C(=O)Nc2ccc(C(=O)O)cc2)c(=O)cc1-c1c(C(C)=O)ccc(Cl)c1F` [Example 160, (R)-4-(2-(4-(6-acetyl-3-chloro-2-fluorophenyl)-5-methoxy-2-oxopyridin-1(2H)-yl)-3-cyclobutylpropanamido)benzoic acid], the “CT2, concentration doubling APTT” value with human blood (Table 2) was 3.8 µM. In addition, in data set [1], the Vd/F worked out at 34.6 ± 4.13 L/kg, the AUC amounted to 365 ± 52 ng·h/mL, the CL/F was determined as 92.5 ± 12.3 mL/min/kg and the half-life was 260 ± 21 min. Moreover, in data set [1], the MRT is 8.3 ± 1.33 h and the Cmax came out at 53.9 ± 20.3 ng/mL. This compound showed an IC50 in data set [2] of 68 nM.
As to `COc1cn([C@@H](Cc2ccn(C3CC3)n2)C(=O)Nc2ccc(C(=O)O)cc2)c(=O)cc1-c1cc(Cl)ccc1C(C)=O` [Example 94, (S)-4-(2-(4-(2-acetyl-5-chlorophenyl)-5-methoxy-2-oxopyridin-1(2H)-yl)-3-(1-cyclopropyl-1H-pyrazol-3-yl)propanamido)benzoic acid], the “CT2, concentration doubling APTT” value in the data set with human blood (Table 2) came to 2.2 µM. In addition, inhibition in data set [2] was half-maximal at 24 nM (IC50).
In the case of `COc1cn(C(Cc2ccn(C3CC3)n2)C(=O)Nc2ccc3nccnc3c2)c(=O)cc1-c1cc(Cl)ccc1C(C)=O` (stereo not drawn) [Example 96, 2-(4-(2-acetyl-5-chlorophenyl)-5-methoxy-2-oxopyridin-1(2H)-yl)-3-(1-cyclopropyl-1H-pyrazol-3-yl)-N-(quinoxalin-6-yl)propanamide], the “CT2, concentration doubling APTT” value with human blood (Table 2) amounted to 6.7 µM. The compound further returned an IC50 in data set [2] of 32 nM.
Consider `CCC(=O)c1ccc(Cl)cc1-c1cc(=O)n(C(CC2CCCCO2)C(=O)Nc2ccc(C(=O)O)cc2)cc1OC` (stereo not drawn) [Example 166], for which the “CT2, concentration doubling APTT” value in the data set with human blood (Table 2) stood at 7.2 µM. The IC50 in data set [2] was determined as 42 nM.
On the same counts, the results for `COc1cn([C@@H](Cc2cccc(C#N)c2)C(=O)Nc2ccc(C(=O)O)cc2)c(=O)cc1-c1cc(Cl)ccc1C(C)=O` [Example 89, (S)-4-(2-(4-(2-acetyl-5-chlorophenyl)-5-methoxy-2-oxopyridin-1(2H)-yl)-3-(3-cyanophenyl)propanamido)benzoic acid] are 5.7 µM and 42 nM.
With `COc1cn([C@@H](Cc2ccccc2)C(=O)Nc2ccc(C(=O)O)cc2)c(=O)cc1-c1c(C(C)=O)ccc(Cl)c1F` [Example 31, (S)-4-(2-(4-(6-acetyl-3-chloro-2-fluorophenyl)-5-methoxy-2-oxopyridin-1(2H)-yl)-3-phenylpropanamido)benzoic acid], the “CT2, concentration doubling APTT” value in the data set on human blood (Table 2) was 8.5 µM. Further, in data set [1], the Vd/F was found to be 21.6 ± 6.31 L/kg, the AUC was 414 ± 77 ng·h/mL, the CL/F is 82.5 ± 14.6 mL/min/kg and the half-life is 192 ± 84.6 min. Also, in data set [1], the MRT stood at 3.24 ± 0.93 h and the Cmax turned out to be 234 ± 66 ng/mL.
On to `COc1cn([C@@H](Cc2ccccc2)C(=O)Nc2ccc3nn(C)cc3c2)c(=O)cc1-c1cc(Cl)ccc1C(C)=O` [Example 20, (S)-2-(4-(2-acetyl-5-chlorophenyl)-5-methoxy-2-oxopyridin-1(2H)-yl)-N-(2-methyl-2H-indazol-5-yl)-3-phenylpropanamide], for which the “CT2, concentration doubling APTT” value in the data set on human blood (Table 2) amounted to 6.5 µM. In data set [2], this compound yielded an IC50 of 36 nM.
On to `COc1cn([C@H](Cc2cnn(C)c2)C(=O)Nc2ccc(C(=O)O)cc2)c(=O)cc1-c1cc(Cl)ccc1C(C)=O` [Example 104, (R)-4-(2-(4-(2-acetyl-5-chlorophenyl)-5-methoxy-2-oxopyridin-1 (2H)-yl)-3-(1-methyl-1H-pyrazol-4-yl)propanamido)benzoic acid], for which, in the data set on human blood (Table 2), the “CT2, concentration doubling APTT” value was above 10000 µM. In addition, the IC50 in data set [2] was found to be 8150 nM.
On to `COc1cn([C@@H](CCOC2CCC2)C(=O)Nc2ccc(C(=O)O)cc2)c(=O)cc1-c1cc(Cl)ccc1C(C)=O` [Example 164, (S)-4-(2-(4-(2-acetyl-5-chlorophenyl)-5-methoxy-2-oxopyridin-1(2H)-yl)-4-cyclobutoxybutanamido)benzoic acid], for which the “CT2, concentration doubling APTT” value in the data set with human blood (Table 2) stood at 6.4 µM. Further, it took 30 nM to reach half-maximal inhibition in data set [2] (IC50).
For the compound `COc1cn([C@@H](Cc2ccccn2)C(=O)Nc2ccc(C(N)=O)cc2)c(=O)cc1-c1cc(Cl)ccc1C(C)=O` [Example 85, (S)-4-(2-(4-(2-acetyl-5-chlorophenyl)-5-methoxy-2-oxopyridin-1(2H)-yl)-3-(pyridin-2-yl)propanamido)benzamide], the “CT2, concentration doubling APTT” value in the data set on human blood (Table 2) is 6.5 µM. In data set [2], this compound yielded an IC50 of 92 nM.
As for `COc1cn([C@H](CCOC(C)(C)C)C(=O)Nc2ccc(C(=O)O)cc2)c(=O)cc1-c1cc(Cl)ccc1C(C)=O` [Example 112, (R)-4-(2-(4-(2-acetyl-5-chlorophenyl)-5-methoxy-2-oxopyridin-1(2H)-yl)-4-(tert-butoxy)butanamido)benzoic acid], in the data set on human blood (Table 2), the “CT2, concentration doubling APTT” value is above 10000 µM. Further, in data set [2], the IC50 is above 10000 nM.
For the compound `COCC[C@H](C(=O)Nc1ccc2[nH]c(C(=O)O)cc2c1)n1cc(OC)c(-c2cc(Cl)ccc2C(C)=O)cc1=O` [Example 3, (R)-5-(2-(4-(2-acetyl-5-chlorophenyl)-5-methoxy-2-oxopyridin-1 (2H)-yl)-4-methoxybutanamido)-1H-indole-2-carboxylic acid], the “CT2, concentration doubling APTT” value in the data set on human blood (Table 2) is above 10000 µM. Moreover, in data set [2], the IC50 is 1740 nM.
`COc1cn(C(Cc2ccn(C)n2)C(=O)Nc2ccc(C(=O)O)cc2)c(=O)cc1-c1cc(Cl)ccc1C(C)=O` (stereo not drawn) [Example 100, 4-(2-(4-(2-acetyl-5-chlorophenyl)-5-methoxy-2-oxopyridin-1(2H)-yl)-3-(1-methyl-1H-pyrazol-3-yl)propanamido)benzoic acid]: in the data set with human blood (Table 2), the “CT2, concentration doubling APTT” value came out at 3.3 µM. The same compound had an IC50 in data set [2] of 35 nM.
Regarding `COc1cn(C(Cc2ccn(C3CC3)n2)C(=O)Nc2ccc3ncncc3c2)c(=O)cc1-c1cc(Cl)ccc1C(C)=O` (stereo not drawn) [Example 98, 2-(4-(2-acetyl-5-chlorophenyl)-5-methoxy-2-oxopyridin-1(2H)-yl)-3-(1-cyclopropyl-1H-pyrazol-3-yl)-N-(quinazolin-6-yl)propanamide], in the data set with human blood (Table 2), the “CT2, concentration doubling APTT” value was determined as 7.6 µM. The compound also gave a concentration for half-maximal inhibition (IC50) in data set [2] of 40 nM.
